Measured values: US12528826B2, “[1,4]oxazepino[2,3-c]quinolinone derivatives as BCL6 inhibitors” (Cancer Research Technology Limited, priority 2019, dated 2026)

Columns and labels:
[1] = system: GC B cells and non-GC B cells in spleen cell cultures; test: Mouse splenocyte flow cytometry immunology experiments; assay type: cell-based
Method: Male C57BL/6 mice were immunised in both flanks subcutaneously with CFA (100 μl of 4 mg/ml CFA). On day 8 the animals were terminated, spleens harvested and processed to single cell suspensions.
Splenocytes were resuspended in complete media (RPMI 1640+10% foetal calf serum, supplemented with 4 mM L-glutamine, 100 U/ml-100 μg/ml) penicillin/streptomycin and 50 μM B-mercaptoethanol (Gibco)). The cells were activated for 48 hours with 2 μg/ml αCD40 (ThermoFisher)+[…] IL-4 (Bio-techne) at 37° C. in a humidified CO2 incubator. Example 4b was added at the same time as activation in an 8-point dose titration. Following the culture period, cells were collected, washed with PBS (Gibco) and selected wells were counted using a LUNA™ Counter (Logos Biosystems).
Harvested cells were washed in PBS (Gibco) and stained with Invitrogen™ eBioscience™ Fixable Viability Dye eFluor 780 (Fisher scientific), then FcR blocked (Miltenyi Biotec) and stained with surface receptor antibodies (see Table 3 below). Cells were then washed in flow cytometry buffer (PBS supplemented with 1% BSA and 0.05% azide) and the secondary streptavidin was added. Cells were then washed, fixed and permeabilized in Transcription factor staining buffer (Fisher scientific); according to the manufacturer's instructions. Intracellular antibodies were then added to the samples. Following final washes, cells were fixed in 1% PFA and acquired on a BD LSR Fortessa™ (BD Bioscience). All analysis was carried out using FlowJo software v10.
In order to test the hypothesis that degradation or inhibition of Bcl6 may be able to modulate primary cells of the immune system, resulting in a decrease in their potential to generate autoantibodies, the above experiment was performed. Mice were immunised in order to drive the generation of germinal centre (GC) B cells. Spleens were then cultured in the presence or absence of a Bcl6 inhibitor (Example 4b) for 48 hours and non-GC B cells or GC B cells were identified using flow cytometry (FIG. 1).

[2] = molecular target: T1, Trx-6×His-BCL6 (human BCL6 BTB domain covering amino-acid sequence 5-129) (Homo sapiens, UniProt P41182); test: HTRF assay (BCL6 / BCOR peptide); assay type: binding; settings: 1 nM Trx-6×His-BCL6, 300 nM BCOR-AF633 peptide, 2 hours incubation at room temperature; read-out: HTRF avg pIC50 (converted)
T1 construct: made in house
Method: After 2 hours incubation at room temperature the plate was read on a Pherastar FSX (BMG Labtech) plate reader equipped with 337 nm laser excitation filter, a first emission filter at 620 nm and a second emission filter at 665 nm. The % inhibition at each concentration was calculated by normalising FRET ratio to the appropriate high (DMSO with all reagents) and low (DMSO without BCL6) controls.

With Cn1c(=O)c2c(c3cc(Nc4ccnc(F)c4Cl)ccc31)N[C@@H](C1CC1)C(F)(F)CO2 [Example 4b, (S)-10-((3-chloro-2-fluoropyridin-4-yl)amino)-2-cyclopropyl-3,3-difluoro-7-methyl-1,2,3,4-tetrahydro-[1,4]oxazepino[2,3-c]quinolin-6(7H)-one] the “numbers of GC B cells as determined by expression of the lineage markers GL7 and CD95” value ([1]; spleen cell cultures, 48 hours, at 10 μM (FIG. 4)) was “decreased”, the “BCL6 expression in non-GC B cells (GeoMFI, flow cytometry)” value ([1]; splenocytes of CFA-immunised C57BL/6 mice, activated 48 hours with αCD40 + IL-4, various concentrations (FIG. 2)) was “did not result in a reduction” and the “Blimp expression by GC B cells (GeoMFI, flow cytometry)” value ([1]; splenocytes of CFA-immunised C57BL/6 mice, activated 48 hours with αCD40 + IL-4, various concentrations (FIG. 3)) was “increase”. The IC50 [2] was 6.31 nM.
